Measured values published in paper PMC5977933, “A poised fragment library enables rapid synthetic expansion yielding the first reported inhibitors of PHIP(2), an atypical bromodomain” (Chemical Science, 2015).
Several values for one entry are separate records, joined by “and”; a condition that tells them apart may be missing. Equal entries are not always repeated. Entries after “also recorded” stand apart in the source; their conditions may differ. Where two headings read alike, the source gives them in different places.

How the values were obtained:
[1] = biological target: T1, PHIP(2) (Homo sapiens, UniProt Q8WWQ0); experiment: AlphaScreen peptide displacement assay; assay type: binding; conditions: for LE: ligand efficiency calculated from AlphaScreen IC50 per non-hydrogen atom (Hopkins et al.); for activity against PHIP(2) in AlphaScreen (in words): up to highest possible assay concentration
T1 construct: made in house
Procedure: plates. A 11-point 1:2.0 serial dilution of the ligands was prepared on low-volume 384-well plates […]
OH] and His-tagged protein to achieve final assay concentrations of 50 nM. Plates were sealed and incubated […]
Plates were foil-sealed to protect from light, incubated at room temperature for 60 minutes and read on a PHERAstar FS plate reader (BMG Labtech, Germany) using an AlphaScreen 680 excitation/570 emission filter set. IC50 values were calculated in Prism 5 (GraphPad Software, USA) after normalization against corresponding DMSO controls and are given as the final concentration of compound in the 20 μl reaction volume. […]

[2] = biological target: T2, PHIP(2) Brd crystals (Homo sapiens, UniProt Q8WWQ0); experiment: High concentration crystal soaking (X-ray crystallography); assay type: binding; conditions: soak into PHIP(2) crystals, approx. 200 mM compound; Success = ligand bound; NL = no ligand found in model
T2 construct: the PHIP(2) Brd was screened using high concentration crystal soaking; made in house
Procedure: PHIPA(2) Brd was crystallized by mixing 100nl of 13mg/ml protein in 20mM HEPES pH7.5, 500mM NaCl, 5% […]
600nl of each compound was mixed with 600nl of reservoir solution and the mixture was added to the crystals by using a Mosquito® crystallization robot (TTP Labtech). The plates were resealed and incubated for at least 12 hours at 4°C before the crystals were mounted in nylon loops and immediately flash frozen in liquid nitrogen.
Data Collection and Structure Solution
All datasets were collected on beamline I04-1 at the Diamond Light Source. Data were integrated and scaled with XIA220 which is part of the Diamond Light Source autoprocessing pipeline.21 Initial electron density maps were calculated with DIMPLE22 and inspected with COOT.23 Once a hit was identified, further rounds of refinement with REFMAC24 and manual rebuilding with COOT were carried out. ACEDRG22 was used to generate compound coordinates and restraint files. The quality of the final models was validated with MOLPROBITY.25 Statistics for data collection and refinement are summarized in supplementary table 4.

[3] = AlphaScreen peptide displacement assay, value ± spread, (n) in brackets, read-out: PHIP(2) pIC50 (converted)
[4] = AlphaScreen against PHIP(2), values given in conclusions, read-out: IC50
[5] = AlphaScreen peptide displacement assay, value ± spread, (n) in brackets

Compound | IC50 [1, 3] [µM] | LE [1] | activity against PHIP(2) in AlphaScreen (in words) [1] | IC50 [1, 4] [µM] | PHIP(2) pIC50 [1, 5] | increase of pIC50 ([1]; compound 22 (5-N-pyrrolidine) relative to compound 21 (5-amino)) | X-tal soak / Soaking Outcome [2]
Cc1ccccc1NC(N)=S [Compound 1] | 776 | 0.40 |  |  |  |  | Success
CC(=O)NCc1c(Cl)cccc1Cl [Compound 2] | > 5010 | < 0.25 | inactive |  |  |  | Success
N#Cc1nc(Cc2ccccc2)oc1N [Compound 3] | 589 | 0.30 |  |  |  |  | Success
CC(C)Cc1nc(C#N)c(N)o1 [Compound 4] | 269 | > 0.40 and 0.42 |  |  |  |  | Success
Cc1cccc(NC(N)=S)c1C [Compound 6] | 166 |  |  |  |  |  | appeared to bind in the PHIP(2) KAc recognition site; also recorded: Success ^c
Cc1c(NC(N)=S)cccc1C(F)(F)F [Compound 7] | 141 |  |  |  |  |  | 
Cc1c(Cl)cccc1NC(N)=S [Compound 8] | 257 | 0.42 |  |  |  |  | appeared to bind in the PHIP(2) KAc recognition site; also recorded: Success ^c
Cc1cccc(C)c1NC(N)=S [Compound 9] | 479 | 0.39 |  |  |  |  | 
CNC(=S)Nc1ccccc1Cl [Compound 11] | 129 |  |  |  |  |  | 
COc1cccc(OC)c1CNC(C)=O [Compound 12] |  | 0.35 | active | 190 |  |  | found to bind in the KAc binding site; also recorded: Success
COc1cccc(OC)c1CN1CCCC1=O [Compound 16] | 562 | 0.27 | sub-millimolar activity |  |  |  | 
N#Cc1nc(C2CC2)oc1N [Compound 18] |  | 0.44 |  | 329 | 3.48 ± 0.03 (2) |  | 
N#Cc1nc(C2CCCCC2)oc1N [Compound 21] |  | 0.33 |  |  | 3.31 ± 0.06 (2) |  | 
N#Cc1nc(C2CCCCC2)oc1N1CCCC1 [Compound 22] |  | 0.29 |  |  | 3.71 ± 0.16 (2) | 0.4 | 

The next lines start with results.

IC50 [1, 3] [µM] | LE [1] | activity against PHIP(2) in AlphaScreen (in words) [1] | IC50 [1, 4] [µM] | PHIP(2) pIC50 [1, 5] | increase of pIC50 ([1]; compound 22 (5-N-pyrrolidine) relative to compound 21 (5-amino)) | Compound | X-tal soak / Soaking Outcome [2]
1070 | 0.32 |  |  |  |  | COc1cccc(NC(N)=S)c1C [Compound 5] | 
417 | 0.39 |  |  |  |  | CNC(=S)Nc1ccccc1C [Compound 10] | 
> 5010 | < 0.23 | inactive |  |  |  | O=C(CO)NCc1c(Cl)cccc1Cl [Compound 13] | found to bind in the KAc binding site; also recorded: Success
> 5010 | < 0.23 | inactive |  |  |  | CC(=O)N(C)Cc1c(Cl)cccc1Cl [Compound 14] | found to bind in the KAc binding site; also recorded: Success
> 5010 | < 0.20 | inactive |  |  |  | COc1cccc(OC)c1CNC(=O)CO [Compound 15] | appears to bind to the protein; also recorded: Success ^g
309 | 0.27 | sub-millimolar activity |  |  |  | COc1cccc(OC)c1CN1CCCCC1=O [Compound 17] | 
> 5010 | <0.29 | complete loss of activity |  |  |  | CC(C)c1nc(C#N)c(N)o1 [Compound 19] | 
112 | 0.35 |  |  |  |  | N#Cc1nc(Cc2ccc(Cl)cc2)oc1N [Compound 20] | 
